Test results as given in EP0719251B1, “BICYCLO (2.2.2) OCTANE DERIVATIVES CHOLECYSTOKININ AND/OR GASTRIN ANTAGONISTS” (JAMES BLACK FOUNDATION LIMITED, priority 1993, dated 1995).

Columns and labels:
[1] = target: T1, gastrin (Rattus norvegicus, UniProt P30553); assay: gastrin antagonist activity in an immature rat stomach assay; conditions: isolated immature rat stomach, cumulative pentagastrin dose-response curves, acid secretion; for Kb: read-out: Gastrin pKB (converted)
T1 construct: The stomach was excised and flushed with ca. 1 ml of unbuffered physiological saline solution; from tissue; host or cells: isolated whole stomach of immature rats (33-50 g, ca. 21 days old)
T1 sequence (P30553 1-452): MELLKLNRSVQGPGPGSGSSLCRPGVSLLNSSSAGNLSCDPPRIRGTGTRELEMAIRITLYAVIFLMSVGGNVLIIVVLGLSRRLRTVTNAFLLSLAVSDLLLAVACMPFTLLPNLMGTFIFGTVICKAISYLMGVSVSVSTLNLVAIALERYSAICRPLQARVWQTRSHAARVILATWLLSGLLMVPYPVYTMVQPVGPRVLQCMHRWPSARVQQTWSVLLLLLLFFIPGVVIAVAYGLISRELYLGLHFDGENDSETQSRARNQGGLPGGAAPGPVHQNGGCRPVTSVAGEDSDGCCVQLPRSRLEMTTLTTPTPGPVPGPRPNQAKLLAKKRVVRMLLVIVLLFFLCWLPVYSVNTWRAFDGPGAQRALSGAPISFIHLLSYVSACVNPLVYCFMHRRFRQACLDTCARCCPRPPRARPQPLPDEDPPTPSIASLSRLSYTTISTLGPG
Experimental: The compounds of the examples were also tested for gastrin antagonist activity in an immature rat stomach assay. The procedure was as follows: The oesophagus of immature rats (33-50 g, ca. 21 days old) was ligated at the level of the cardiac sphincter and the duodenal sphincter was cannulated. The stomach was excised and flushed with ca. 1 ml of unbuffered physiological saline solution. The fundus was punctured and cannulated. A further 4-5 ml of unbuffered solution was flushed through the stomach to ensure the preparation was not leaking. […] The stomach was continuously perfused at a rate of 1 ml min^-1 with unbuffered solution gassed with 100% O2 with the perfusate passing over an internally referenced pH-electrode fixed 12 cm above the stomach. After 120 min of stabilisation the drugs were added directly to the serosal solution in the organ bath and after a further 60 min cumulative pentagastrin dose-response curves were started.

[2] = target: T2, CCKB receptor (Mus musculus, UniProt P56481); assay: radioligand binding assay at the CCKB receptor in mouse cortical membranes; conditions: [125I]-CCK8S 200pM, 150 min at 21 ± 3°C; for Ki: read-out: CCKB pKi (converted)
T2 construct: The whole brains from male mice (CD1 22-25g; Charles River) were removed; from tissue; host or cells: cerebral cortex membranes of male CD1 mice
T2 sequence (P56481 1-453): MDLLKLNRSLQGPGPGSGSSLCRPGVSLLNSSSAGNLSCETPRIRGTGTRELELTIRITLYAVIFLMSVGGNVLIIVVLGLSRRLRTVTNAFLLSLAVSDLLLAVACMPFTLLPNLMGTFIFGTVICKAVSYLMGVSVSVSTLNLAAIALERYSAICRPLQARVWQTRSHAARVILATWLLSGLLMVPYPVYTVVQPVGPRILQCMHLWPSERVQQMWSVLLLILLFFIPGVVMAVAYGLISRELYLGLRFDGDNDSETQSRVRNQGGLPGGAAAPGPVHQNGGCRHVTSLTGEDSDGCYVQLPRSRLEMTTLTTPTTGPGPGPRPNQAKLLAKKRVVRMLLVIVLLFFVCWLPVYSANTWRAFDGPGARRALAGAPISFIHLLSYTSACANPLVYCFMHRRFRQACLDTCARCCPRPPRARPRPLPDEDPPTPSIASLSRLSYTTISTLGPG
Experimental: The compounds of the examples were tested for binding at the CCKB receptor in mouse cortical membranes by means of a radioligand binding assay. The procedure was as follows:
The whole brains from male mice (CD1 22-25g; Charles River) were removed and placed in ice-cold buffer (pH7.2 @ 21 ± 3°C) of the following composition (mM); 10 HEPES, 130 NaCl, 4.7 KCl, 5 MgCl2, 1 EDTA and containing 0.25g.l^-1 bacitracin. The cortex was dissected, weighed and homogenised in 40ml ice-cold buffer using a Teflon-in-glass homogeniser. The homogenate was centrifuged at 39,800g for 20 min at 4°C, the supernatant discarded and the pellet resuspended by homogenisation in fresh buffer. The homogenate was recentrifuged (39,800g; 20 min @ 4°C) and the final pellet was resuspended in HEPES buffer to give a tissue concentration of 2mg.ml^-1(original wet weight).
The assay was terminated by rapid filtration through pre-soaked Whatman GF/B filters using a Brandell Cell harvester. The filters were washed (3 x 3ml) with ice-cold 50mM Tris-HCl (pH7.4 @ 4°C) and bound radioactivity determined by counting (1 min.) in a gamma-counter.

Row | Compound | Kb [1] | Ki [2] | CCKB pKi [2] | Gastrin pKB ([1]; 60 min)
1 | O=C(O)c1cc(NC(=O)[C@H](Cc2ccc(O)cc2)NC(=O)C2C3c4ccccc4C(c4ccccc43)C2C(=O)NCC23CC4CC(CC(C4)C2)C3)cc(C(=O)O)c1 (single isomer, unassigned) [Example 24, cis-7-(1S-(3,5-dicarboxyphenylaminocarbonyl) -2-(4-hydroxyphenyl) -ethylaminocarbonyl)-8-(1-adamantanemethylaminocarbonyl) -2,3,5,6-dibenzobicyclo[2.2.2]octane] | 1.26 nM | 1.58 nM |  | 
2 | O=C(O)c1ccc(NC(=O)[C@H](Cc2ccccc2)NC(=O)C2C3c4ccccc4C(c4ccccc43)C2C(=O)NCC23CC4CC(CC(C4)C2)C3)cc1 (single isomer, unassigned) [Example 46, cis-7-(1S-(4-carboxy-phenylaminocarbonyl) -2-phenylethylaminocarbonyl)-8-(1-adamantane-methylaminocarbonyl) -2,3,5,6-dibenzobicyclo[2.2.2]octane] | 2000 nM | 158 nM |  | 
3 | O=C(O)c1cc(NC(=O)[C@H](Cc2ccccc2)NC(=O)C2C3c4ccccc4C(c4ccccc43)C2C(=O)NCC2CCCCCC2)cc(C(=O)O)c1 (single isomer, unassigned) [Example 28, cis-7-(1S-(3,5-dicarboxyphenylaminocarbonyl) -2-phenylethylaminocarbonyl)-8-(1-cycloheptane-methylaminocarbonyl) -2,3,5,6-dibenzobicyclo[2.2.2]octane] | 3.98 nM | 3.98 nM |  | 
4 | cis-7-(1S-(3-carboxyphenylaminocarbonyl)-2-phenylethylaminocarbonyl)-8-(1-naphthalenemethylaminocarbonyl)-2,3,5,6-dibenzobicyclo[2.2.2]octane [Example 59] |  |  | 7.2 | 
5 | O=C(O)c1cc(NC(=O)[C@@H](Cc2ccc(O)cc2)NC(=O)C2C3c4ccccc4C(c4ccccc43)C2C(=O)NCC23CC4CC(CC(C4)C2)C3)cc(C(=O)O)c1 (single isomer, unassigned) [Example 27, cis-7-(1R-(3,5-dicarboxyphenylaminocarbonyl)-2-(4-hydroxyphenyl)ethylaminocarbonyl)-8-(1-adamantanemethylaminocarbonyl)-2,3,5,6-dibenzobicyclo [2.2.2]octane] | 7.94 nM | 15.8 nM |  | 
6 | COC(=O)c1cc(NC(=O)[C@H](Cc2ccccc2)NC(=O)C2C3c4ccccc4C(c4ccccc43)C2C(=O)NCC23CC4CC(CC(C4)C2)C3)cc(C(=O)OC)c1 (single isomer, unassigned) [Example 48] |  | 10000 nM |  | 
7 | O=C(O)c1ccc(NC(=O)[C@H](Cc2ccccc2)NC(=O)C2C3c4ccccc4C(c4ccccc43)C2C(=O)NCC23CC4CC(CC(C4)C2)C3)cc1 (single isomer, unassigned) [Example 47] |  | 126 nM |  | 
8 | O=C(O)c1cccc(NC(=O)[C@H](Cc2ccccc2)NC(=O)C2C3c4ccccc4C(c4ccccc43)C2C(=O)NCc2cccc3ccccc23)c1 (single isomer, unassigned) [Example 60, cis-7-(1S-(3-carboxyphenylaminocarbonyl)-2-phenylethylaminocarbonyl)-8-(1-naphthalenemethylaminocarbonyl)-2,3,5,6-dibenzobicyclo [2.2.2]octane] |  | 398 nM |  | 
9 | O=C(O)c1cc(NC(=O)[C@H](Cc2ccccc2)NC(=O)C2C3c4ccccc4C(c4ccccc43)C2C(=O)NCC2CCCCCC2)cc(C(=O)O)c1 (single isomer, unassigned) [Example 29, cis-7-(1S-(3,5-dicarboxyphenylaminocarbonyl) -2-phenylethylaminocarbonyl) -8-(cycloheptanemethyl-aminocarbonyl)-2,3,5,6-dibenzobicyclo[2.2.2]octane] | 100 nM | 39.8 nM |  | 
10 | O=C(NCC12CC3CC(CC(C3)C1)C2)C1C2c3ccccc3C(c3ccccc32)C1C(=O)N[C@@H](Cc1ccccc1)C(=O)Nc1ccccc1 (single isomer, unassigned) [Example 23, cis-7-(1S-(phenylaminocarbonyl)-2-phenylethylaminocarbonyl)-8-(1-adamantanemethylaminocarbonyl)-2,3,5,6-dibenzobicyclo[2.2.2]octane] | 251 nM |  |  | 
11 | O=C(NCC12CC3CC(CC(C3)C1)C2)C1C2c3ccccc3C(c3ccccc32)C1C(=O)N[C@@H](Cc1ccccc1)C(=O)Nc1cc(-c2nnn[nH]2)cc(-c2nnn[nH]2)c1 (stereo partly drawn) [Example 44, cis-7-(1S-(3,5-ditetrazolylphenylaminocarbonyl) -2-phenylethylaminocarbonyl) -8-(1-adamantanemethylaminocarbonyl)-2,3,5,6-dibenzobicyclo[2.2.2] octane] |  |  | 6.5 | 6.9
12 | O=C(O)c1cccc(NC(=O)[C@H](Cc2cccs2)NC(=O)C2C3c4ccccc4C(c4ccccc43)C2C(=O)NCc2cccc3ccccc23)c1 (single isomer, unassigned) [Example 58, cis-7-(1S-(3-carboxyphenylaminocarbonyl)-2-(2-thiophenyl)ethylaminocarbonyl)-8-(1-naphthalenemethylaminocarbonyl)-2,3,5,6-dibenzobicyclo[2.2.2]octane] |  | 501 nM |  | 
13 | cis-7-(1S-(3-carboxyphenylaminocarbonyl)-2- (2-thiophenyl)ethylaminocarbonyl)-8-(1-naphthalenemethylaminocarbonyl) -2,3,5,6-dibenzobicyclo[2.2.2]octane [Example 57] |  |  | 7.2 | 
14 | O=C(O)c1cc(NC(=O)[C@@H](Cc2ccc(O)cc2)NC(=O)C2C3c4ccccc4C(c4ccccc43)C2C(=O)NCC23CC4CC(CC(C4)C2)C3)cc(C(=O)O)c1 (single isomer, unassigned) [Example 26, cis-7-(1R-(3,5-dicarboxyphenylaminocarbonyl)-2-(4-hydroxyphenyl)-ethylaminocarbonyl)-8-(1-adamantanemethylaminocarbonyl) -2,3,5,6-dibenzobicyclo [2.2.2]octane] | 158 nM |  |  | 
15 | O=C(O)c1cc(NC(=O)[C@H](Cc2ccc(O)cc2)NC(=O)C2C3c4ccccc4C(c4ccccc43)C2C(=O)NCC23CC4CC(CC(C4)C2)C3)cc(C(=O)O)c1 (single isomer, unassigned) [Example 25, cis-7-(1S-(3,5-dicarboxyphenylaminocarbonyl)-2-(4-hydroxyphenyl)ethylaminocarbonyl)-8-(1-adaxantanemethylaminocarbonyl)-2,3,5,6-dibenzobicyclo[2.2.2]octane] | 63.1 nM |  |  | 
